Each structure is given as a SMILES string.

Here are results for 19 compounds from patent publication US9695154B2, “Heteroaryl inhibitors of sumo activating enzyme” (MILLENNIUM PHARMACEUTICALS, INC., priority 2013, dated 2017).

The test deals with T1, recombinant human SAE enzyme (Homo sapiens, UniProt Q9UBT2).
T1 sequence (Q9UBT2 1-640): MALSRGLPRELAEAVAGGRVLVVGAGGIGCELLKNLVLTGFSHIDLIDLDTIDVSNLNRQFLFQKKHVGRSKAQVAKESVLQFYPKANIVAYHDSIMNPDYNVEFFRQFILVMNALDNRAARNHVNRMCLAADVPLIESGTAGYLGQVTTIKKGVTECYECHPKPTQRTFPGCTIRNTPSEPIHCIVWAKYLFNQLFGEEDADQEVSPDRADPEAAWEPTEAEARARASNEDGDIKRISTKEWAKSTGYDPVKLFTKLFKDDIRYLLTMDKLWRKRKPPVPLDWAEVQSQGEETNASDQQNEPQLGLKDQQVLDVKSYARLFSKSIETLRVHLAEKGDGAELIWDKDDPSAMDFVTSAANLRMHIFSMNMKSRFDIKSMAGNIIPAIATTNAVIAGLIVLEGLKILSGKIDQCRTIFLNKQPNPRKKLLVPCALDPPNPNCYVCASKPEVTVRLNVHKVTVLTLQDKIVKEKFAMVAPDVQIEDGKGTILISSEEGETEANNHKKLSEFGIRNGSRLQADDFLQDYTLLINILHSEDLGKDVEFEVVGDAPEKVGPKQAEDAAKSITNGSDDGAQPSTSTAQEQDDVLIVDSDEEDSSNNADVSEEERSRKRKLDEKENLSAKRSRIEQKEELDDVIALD
T1 sequence (Q9UBE0 1-346 partner): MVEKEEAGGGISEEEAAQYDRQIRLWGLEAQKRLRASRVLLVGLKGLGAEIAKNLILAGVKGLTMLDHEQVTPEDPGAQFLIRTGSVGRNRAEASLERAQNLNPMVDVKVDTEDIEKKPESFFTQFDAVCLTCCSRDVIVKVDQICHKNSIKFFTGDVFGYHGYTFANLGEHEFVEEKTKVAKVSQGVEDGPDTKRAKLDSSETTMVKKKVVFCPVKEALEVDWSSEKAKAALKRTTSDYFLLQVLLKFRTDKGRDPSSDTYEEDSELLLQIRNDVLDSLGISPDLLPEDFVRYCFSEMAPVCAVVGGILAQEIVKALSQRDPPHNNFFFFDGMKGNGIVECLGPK
Nature of the test: SAE HTRF Enzyme Assay. The settings on record: for IC50: class symbols A-C; for inhibition at 0.111 µM: compound concentration 0.111 μM, read-out: Percent Inhibition. Format: biochemical. In short, it runs like this:
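HTRF signal from Eu-anti-Flag/APC-anti-GST pairs reports Sumo-Flag loaded onto Ubc9-GST by 0.11 nM SAE. Reaction: 0.5 μM ATP, 0.125 μM Sumo-Flag, 0.01 μM Ubc9-GST, 5 mM MgCl2, pH 7.5, 105 min, 24° C. Single-concentration % inhibition or IC50 reported.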

As for `NS(=O)(=O)OC[C@H]1C[C@@H](Nc2ncncc2C(=O)c2ccn(Cc3ccc(F)c(Br)c3)c2)[C@@H](F)[C@@H]1O` [Compound I-143, {(1R,2R,3R,4R)-4-[(5-{[1-(3-bromo-4-fluorobenzyl)-1H-pyrrol-3-yl]carbonyl}pyrimidin-4-yl)amino]-3-fluoro-2-hydroxycyclopentyl}methyl sulfamate], the IC50 is less than 10 nM and the inhibition at 0.111 µM came to 99%.
With `NS(=O)(=O)OC[C@H]1C[C@@H](Nc2ncncc2C(=O)c2ccn(Cc3ccc4nccn4c3)n2)C[C@@H]1O` [Compound I-144, {(1R,2S,4R)-2-hydroxy-4-[(5-{[1-(imidazo[1,2-a]pyridin-6-ylmethyl)-1H-pyrazol-3-yl]carbonyl}pyrimidin-4-yl)amino]cyclopentyl}methyl sulfamate], the IC50 was less than 10 nM and the inhibition at 0.111 µM amounted to 97%.
Take `NS(=O)(=O)OC[C@H]1C[C@@H](Nc2ncncc2C(=O)c2ccn(CC3=CCCOC3)n2)C[C@@H]1O` [Compound I-145, {(1R,2S,4R)-4-[(5-{[1-(5,6-dihydro-2H-pyran-3-ylmethyl)-1H-pyrazol-3-yl]carbonyl}pyrimidin-4-yl)amino]-2-hydroxycyclopentyl}methyl sulfamate]: the IC50 was 10 to 100 nM and the inhibition at 0.111 µM is 65%.
In the case of `NS(=O)(=O)OC[C@H]1C[C@@H](Nc2ncncc2C(=O)c2ccn(Cc3ccc(Cl)cc3F)n2)[C@H](O)[C@@H]1O` [Compound I-146, {(1R,2R,3S,4R)-4-[(5-{[1-(4-chloro-2-fluorobenzyl)-1H-pyrazol-3-yl]carbonyl}pyrimidin-4-yl)amino]-2,3-dihydroxycyclopentyl}methyl sulfamate], the IC50 was less than 10 nM and the inhibition at 0.111 µM came to 99%.
Consider `NS(=O)(=O)OC[C@H]1C[C@@H](Nc2ncncc2C(=O)c2ccn(Cc3cccc(Cl)c3)c2)[C@@H](F)[C@@H]1O` [Compound I-147, {(1R,2R,3R,4R)-4-[(5-{[1-(3-chlorobenzyl)-1H-pyrrol-3-yl]carbonyl}pyrimidin-4-yl)amino]-3-fluoro-2-hydroxycyclopentyl}methyl sulfamate], for which the IC50 was less than 10 nM and the inhibition at 0.111 µM was more than 99%.
With `NS(=O)(=O)OC[C@H]1C[C@@H](Nc2ncncc2C(=O)c2cc(Cl)n(Cc3cc(C(F)(F)F)on3)c2)[C@@H](F)[C@@H]1O` [Compound I-148, [(1R,2R,3R,4R)-4-({5-[(5-chloro-1-{[5-(trifluoromethyl)isoxazol-3-yl]methyl}-1H-pyrrol-3-yl)carbonyl]pyrimidin-4-yl}amino)-3-fluoro-2-hydroxycyclopentyl]methyl sulfamate], the IC50 lay in the range of 10 to 100 nM and the inhibition at 0.111 µM is 85%.
For `Cc1cn(Cc2cccc(Br)c2)cc1C(=O)c1cncnc1N[C@@H]1C[C@H](COS(N)(=O)=O)[C@@H](O)[C@@H]1F` [Compound I-149, {(1R,2R,3R,4R)-4-[(5-{[1-(3-bromobenzyl)-4-methyl-1H-pyrrol-3-yl]carbonyl}pyrimidin-4-yl)amino]-3-fluoro-2-hydroxycyclopentyl}methyl sulfamate], the IC50 fell in the range of 10 to 100 nM and the inhibition at 0.111 µM turned out to be 85%.
As to `NS(=O)(=O)OC[C@H]1C[C@@H](Nc2ncncc2C(=O)c2ccn(Cc3ccccn3)n2)[C@H](O)[C@@H]1O` [Compound I-150, {(1R,2R,3S,4R)-2,3-dihydroxy-4-[(5-{[1-(pyridin-2-ylmethyl)-1H-pyrazol-3-yl]carbonyl}pyrimidin-4-yl)amino]cyclopentyl}methyl sulfamate], the IC50 is less than 10 nM and the inhibition at 0.111 µM came to 98%.
With `COC(C)(C)C#CCn1ccc(C(=O)c2cncnc2N[C@@H]2C[C@H](COS(N)(=O)=O)[C@@H](O)C2)n1` [Compound I-151, {(1R,2S,4R)-2-hydroxy-4-[(5-{[1-(4-methoxy-4-methylpent-2-yn-1-yl)-1H-pyrazol-3-yl]carbonyl}pyrimidin-4-yl)amino]cyclopentyl}methyl sulfamate], the IC50 fell in the range of 10 to 100 nM and the inhibition at 0.111 µM came out at 54%.
Regarding `NS(=O)(=O)OC[C@H]1C[C@@H](Nc2ncncc2C(=O)c2ccn(Cc3ccc(Cl)c(OC(F)(F)F)c3)n2)C[C@@H]1O` [Compound I-152, [(1R,2S,4R)-4-{[5-({1-[4-Chloro-3-(trifluoromethoxy)benzyl]-1H-pyrazol-3-yl}carbonyl)pyrimidin-4-yl]amino}-2-hydroxycyclopentyl]methyl sulfamate], the IC50 was less than 10 nM and the inhibition at 0.111 µM is 94%.
Take `CC(C)CC#CCn1ccc(C(=O)c2cncnc2N[C@@H]2C[C@H](COS(N)(=O)=O)[C@@H](O)C2)n1` [Compound I-153, {(1R,2S,4R)-2-hydroxy-4-[(5-{[1-(5-methylhex-2-yn-1-yl)-1H-pyrazol-3-yl]carbonyl}pyrimidin-4-yl)amino]cyclopentyl}methyl sulfamate]: the IC50 lay in the range of 10 to 100 nM and the inhibition at 0.111 µM stood at 82%.
Take `CC(C)(O)C#CCn1ccc(C(=O)c2cncnc2N[C@@H]2C[C@H](COS(N)(=O)=O)[C@@H](O)C2)n1` [Compound I-154, {(1R,2S,4R)-2-hydroxy-4-[(5-{[1-(4-hydroxy-4-methylpent-2-yn-1-yl)-1H-pyrazol-3-yl]carbonyl}pyrimidin-4-yl)amino]cyclopentyl}methyl sulfamate]: the IC50 is 100 to 1000 nM and the inhibition at 0.111 µM was determined as 39%.
In the case of `NS(=O)(=O)OC[C@H]1C[C@@H](Nc2ncncc2C(=O)c2ccn(Cc3cc(C(F)(F)F)cc(C(F)(F)F)c3)n2)[C@H](O)[C@@H]1O` [Compound I-155, [(1R,2R,3S,4R)-4-{[5-({1-[3,5-bis(trifluoromethyl)benzyl]-1H-pyrazol-3-yl}carbonyl)pyrimidin-4-yl]amino}-2,3-dihydroxycyclopentyl]methyl sulfamate], the IC50 is less than 10 nM and the inhibition at 0.111 µM was found to be 97%.
Turning to `NS(=O)(=O)OC[C@H]1C[C@@H](Nc2ncncc2C(=O)c2ccn(Cc3ccc(Cl)c(C(F)(F)F)c3)n2)[C@@H](F)[C@@H]1O` [Compound I-156, [(1R,2R,3R,4R)-4-{[5-({1-[4-chloro-3-(trifluoromethyl)benzyl]-1H-pyrazol-3-yl}carbonyl)pyrimidin-4-yl]amino}-3-fluoro-2-hydroxycyclopentyl]methyl sulfamate], the IC50 is 10 to 100 nM and the inhibition at 0.111 µM was found to be 90%.
On the same counts, the results for `CN(c1ncncc1C(=O)c1ccn(Cc2cccc(Br)c2)n1)[C@@H]1C[C@H](COS(N)(=O)=O)[C@@H](O)C1` [Compound I-157, {(1R,2S,4R)-4-[(5-{[1-(3-Bromobenzyl)-1H-pyrazol-3-yl]carbonyl}pyrimidin-4-yl)(methyl)amino]-2-hydroxycyclopentyl}methyl sulfamate] are 10 to 100 nM and 67%.
Take `NS(=O)(=O)OC[C@H]1C[C@@H](Nc2ncncc2C(=O)c2ccn(Cc3ccccc3)n2)C[C@@H]1O` [Compound I-158, [(1R,2S,4R)-4-({5-[(1-Benzyl-1H-pyrazol-3-yl)carbonyl]pyrimidin-4-yl}amino)-2-hydroxycyclopentyl]methyl sulfamate]: the IC50 was less than 10 nM and the inhibition at 0.111 µM turned out to be 95%.
For `NS(=O)(=O)OC[C@H]1C[C@@H](Nc2ncncc2C(=O)c2ccn(Cc3ccc(Cl)c(Cl)c3)n2)[C@H](O)[C@@H]1O` [Compound I-159, {(1R,2R,3S,4R)-4-[(5-{[1-(3,4-dichlorobenzyl)-1H-pyrazol-3-yl]carbonyl}pyrimidin-4-yl)amino]-2,3-dihydroxycyclopentyl}methyl sulfamate], the IC50 was less than 10 nM and the inhibition at 0.111 µM is 96%.
With `NS(=O)(=O)OC[C@H]1C[C@@H](Nc2ncncc2C(=O)c2ccn(Cc3ccncc3)n2)[C@H](O)[C@@H]1O` [Compound I-160, {(1R,2R,3S,4R)-2,3-dihydroxy-4-[(5-{[1-(pyridin-4-ylmethyl)-1H-pyrazol-3-yl]carbonyl}pyrimidin-4-yl)amino]cyclopentyl}methyl sulfamate], the IC50 was in the range of 10 to 100 nM and the inhibition at 0.111 µM was 81%.
Turning to `NS(=O)(=O)OC[C@H]1C[C@@H](Nc2ncncc2C(=O)c2ccn(Cc3ccc(F)cc3)n2)C[C@@H]1O` [Compound I-161, {(1R,2S,4R)-4-[(5-{[1-(4-fluorobenzyl)-1H-pyrazol-3-yl]carbonyl}pyrimidin-4-yl)amino]-2-hydroxycyclopentyl}methyl sulfamate], the IC50 is less than 10 nM and the inhibition at 0.111 µM is 92%.
